Measurements taken from patent US4206235A, “Novel 2,5-dihalophenyl-β-substituted sulfone fungicides” (priority 1976, dated 1980).
In brackets after ≈: the same amount, converted by molar mass. Several values for one entry are separate records, joined by “and”; a condition that tells them apart may be missing. Equal values may be shown once.

Legend:
[1] = system: Fusarium oxysporum sp. f.lycopersici; assay: Fungitoxicity in culture media (agar), growth inhibition; format: cell-based; details: 50% inhibition of growth, read-out: ED50 (the source's name)
Experimental: (§1) Acetone solutions of the compound were mixed with an aliquot of distilled water and the fine suspension obtained was mixed with cooled but melted agar medium and poured into Petri dishes.
(§2) The tested fungi were grown on the solidified media. Growth of the fungus was measured and percent inhibition was calculated by comparing with the appropriate acetone-water controls. Media were usually Martin's or potato-dextrose agar media.
(§3) ED50 = effective dose, sufficient for the 50% inhibition of growth of the fungus, expressed in p.p.m.

Pythium aphanidermatum = assay: as above; format: cell-based; details: 50% inhibition of growth, read-out: ED50 (the source's name)
Experimental: as §1, §2, §3

Rhizoctonia bataticola = assay: as above; format: cell-based; details: Macrophomina phaseolina, 50% inhibition of growth, read-out: ED50 (the source's name)
Experimental: as §1, §2, §3

Rhizoctonia solani = assay: as above; format: cell-based; details: 50% inhibition of growth, read-out: ED50 (the source's name)
Experimental: as §1, §2, §3

Sclerotinia rolfsil = assay: as above; format: cell-based; details: 50% inhibition of growth, read-out: ED50 (the source's name)
Experimental: as §1, §2, §3

two-spotted mite = assay: Activity against the two-spotted mite
Rhizopus stolonifer = assay: Fungitoxicity in culture media (agar), growth inhibition; format: cell-based; details: 50% inhibition of growth, read-out: ED50 (the source's name)
Experimental: as §1, §2, §3

Penicillium funiculosum = assay: Halo test on plasticized PVC sheeting; format: cell-based; design: key to growth under the test sample (GUS): +: no reduction in growth; ±: slight reduction in growth; .-+.: moderate reduction in growth; -: complete reduction in growth
Trichoderma viride = assay: Halo test on plasticized PVC sheeting; format: cell-based; design: key to growth under the test sample (GUS): +: no reduction in growth; ±: slight reduction in growth; .-+.: moderate reduction in growth; -: complete reduction in growth
Aspergillus flavus = assay: Halo test on plasticized PVC sheeting; format: cell-based; design: key to growth under the test sample (GUS): +: no reduction in growth; ±: slight reduction in growth; .-+.: moderate reduction in growth; -: complete reduction in growth
Aspergillus niger [2] = assay: Halo test on plasticized PVC sheeting; format: cell-based; design: key to growth under the test sample (GUS): +: no reduction in growth; ±: slight reduction in growth; .-+.: moderate reduction in growth; -: complete reduction in growth
[3] = system: Cladosporium cladosporoides; assay: Halo test on plasticized PVC sheeting; format: cell-based; design: key to growth under the test sample (GUS): +: no reduction in growth; ±: slight reduction in growth; .-+.: moderate reduction in growth; -: complete reduction in growth
Paecilomyces varioti [4] = assay: Halo test on plasticized PVC sheeting; format: cell-based; design: key to growth under the test sample (GUS): +: no reduction in growth; ±: slight reduction in growth; .-+.: moderate reduction in growth; -: complete reduction in growth
Alternaria tenuis = assay: Halo test on plasticized PVC sheeting; format: cell-based; design: key to growth under the test sample (GUS): +: no reduction in growth; ±: slight reduction in growth; .-+.: moderate reduction in growth; -: complete reduction in growth; details: for Zone of growth inhibition (halo): brackets = growth partially suppressed
common moulds = assay: Activity against common moulds on plasticized PVC sheets; format: cell-based
[5] = system: mixed spore suspension of Aspergillus flavus, Aspergillus niger, Paecilomyces varioti, Penicillium funiculosum, Trichoderma viride, Alternaria tenuis …; assay: Weight Loss Test of PVC sheeting; details: 14 days at 28° C.; for % weight loss: single strip
Aspergillus niger [6] = assay: Agar incorporation test; format: cell-based; details: 120 h, 5 days at 28° C., A. niger
Experimental: (§4) Pure cultures of fungi Paecilomyces varioti, Cladosporium cladosporides, Penicillium funivulosum, and Aspergillus niger were exposed to a range of dilutions of the compound viz: 10,000, 3,000, 1,000, 600, 300, 100, 30, 10, 1 ppm incorporated into agar via […]. The fungal plates were incubated for 5 days at 28° C. The plates were then assessed for either the presence or absence of growth and the minimum inhibitory concentration (MIC) in ppm recorded.

[7] = system: Cladosporium cladosporides; assay: Agar incorporation test; format: cell-based; details: 120 h, 5 days at 28° C.
Experimental: as §4

Paecilomyces varioti [8] = assay: Agar incorporation test; format: cell-based; details: 120 h, 5 days at 28° C., P. varioti
Experimental: as §4

Penicillium funivulosum = assay: Agar incorporation test; format: cell-based; details: 120 h, 5 days at 28° C., P. funiculosum
Experimental: The fungal plates were incubated for 5 days at 28° C. The plates were then assessed for either the presence or absence of growth and the minimum inhibitory concentration (MIC) in ppm recorded.

[9] = 0.5% in PVC sheeting, brackets = growth partially suppressed

O=S(=O)(C=C(Cl)Cl)c1cc(Cl)ccc1Cl [Example 4, 2,5-dichlorophenyl-β, β-dichlorovinyl sulfone] was tested, and the IC50 [1] was 5 µg/mL (≈ 16.3 µM), the IC50 (Pythium aphanidermatum) was 1 µg/mL (≈ 3.27 µM) and the IC50 (Rhizoctonia bataticola) was 5 µg/mL (≈ 16.3 µM). The IC50 (Rhizoctonia solani) was 5 µg/mL (≈ 16.3 µM), the IC50 (Sclerotinia rolfsil) was 10 µg/mL (≈ 32.7 µM) and the “activity against the two-spotted mite” value (two-spotted mite) was “strong activity”.

COC(=O)C(Cl)CS(=O)(=O)c1cc(Cl)ccc1Cl (stereo not drawn) [Example 3, 2,5-dichlorophenyl-β-carboxymethyl-β'-chloroethyl sulfone] showed an IC50 [1] greater than 50 µg/mL, an IC50 (Pythium aphanidermatum) greater than 50 µg/mL and an IC50 (Rhizoctonia bataticola) of 50 µg/mL (≈ 151 µM). The IC50 (Rhizoctonia solani) was 20 µg/mL (≈ 60.3 µM), the IC50 (Rhizopus stolonifer) was greater than 50 µg/mL and the IC50 (Sclerotinia rolfsil) was 50 µg/mL (≈ 151 µM). For the same compound, the “growth under the test sample (GUS)” value (Penicillium funiculosum; 0.5% in PVC sheeting) was “-”, the “Zone of growth inhibition (halo)” value (Penicillium funiculosum; [9]) was 4 millimetres and the “Zone of growth inhibition (halo)” value (Penicillium funiculosum; 1% in PVC sheeting) was 8 millimetres. The “growth under the test sample (GUS)” value (Penicillium funiculosum; 1% in PVC sheeting) was “-”, the “Zone of growth inhibition (halo)” value (Trichoderma viride; 0.5% in PVC sheeting) was 2 millimetres and the “growth under the test sample (GUS)” value (Trichoderma viride; 0.5% in PVC sheeting) was “.-+”. For the same compound, the “Zone of growth inhibition (halo)” value (Trichoderma viride; 1% in PVC sheeting) was 5 millimetres, the “growth under the test sample (GUS)” value (Trichoderma viride; 1% in PVC sheeting) was “.-+” and the “Zone of growth inhibition (halo)” value (Aspergillus flavus; 0.5% in PVC sheeting) was 1 millimetres. The “growth under the test sample (GUS)” value (Aspergillus flavus; 0.5% in PVC sheeting) was “.-+”, the “Zone of growth inhibition (halo)” value (Aspergillus flavus; 1% in PVC sheeting) was 1 millimetres and the “growth under the test sample (GUS)” value (Aspergillus flavus; 1% in PVC sheeting) was “.-+”. For the same compound, the “growth under the test sample (GUS)” value (Aspergillus niger [2]; 0.5% in PVC sheeting) was “-”, the “Zone of growth inhibition (halo)” value (Aspergillus niger [2]; [9]) was 2 millimetres and the “Zone of growth inhibition (halo)” value (Aspergillus niger [2]; 1% in PVC sheeting) was 6 millimetres. The “growth under the test sample (GUS)” value (Aspergillus niger [2]; 1% in PVC sheeting) was “-”, the “growth under the test sample (GUS)” value ([3]; 0.5% in PVC sheeting) was “-” and the “Zone of growth inhibition (halo)” value [3, 9] was 4 millimetres. The “Zone of growth inhibition (halo)” value ([3]; 1% in PVC sheeting) was 9 millimetres, the “growth under the test sample (GUS)” value ([3]; 1% in PVC sheeting) was “-” and the “Zone of growth inhibition (halo)” value (Paecilomyces varioti [4]; 0.5% in PVC sheeting) was 5 millimetres. For the same compound, the “growth under the test sample (GUS)” value (Paecilomyces varioti [4]; 0.5% in PVC sheeting) was “-”, the “Zone of growth inhibition (halo)” value (Paecilomyces varioti [4]; 1% in PVC sheeting) was 10 millimetres and the “growth under the test sample (GUS)” value (Paecilomyces varioti [4]; 1% in PVC sheeting) was “-”. For the same compound, the “growth under the test sample (GUS)” value (Alternaria tenuis; 0.5% in PVC sheeting) was “-”, the “Zone of growth inhibition (halo)” value (Alternaria tenuis; 0.5% in PVC sheeting) was 5 millimetres and the “growth under the test sample (GUS)” value (Alternaria tenuis; 1% in PVC sheeting) was “-”. The “Zone of growth inhibition (halo)” value (Alternaria tenuis; 1% in PVC sheeting) was 10 millimetres, the “inhibition of the growth of common moulds on PVC sheets” value (common moulds; 0.5% by weight, PVC plasticized with 30% dialkyl sebacate) was “Complete inhibition” and the inhibition of fungi (common moulds; 0.5% in sheeting, halo test, seven fungi) was “all fungi were inhibited”. The “inhibition of fungal attack” value (common moulds; 0.5 and 1.0% in sheeting) was “virtual complete inhibition of fungal attack”, the “degree of inhibition against the seven fungi” value (common moulds; 1.0% in sheeting, halo test) was “good” and the “Mean % loss as plasticizer” value ([5]; 0.5%) was 1.8%. For the same compound, the “Mean % weight loss” value ([5]; 0.5%) was 0.6%, the “% weight loss” value ([5]; 0.5%) was 0.7% and 0.6% and 0.4% and 0.5% and the “Mean % loss as plasticizer” value ([5]; 1.0%) was 0.6%. The “Mean % weight loss” value ([5]; 1.0%) was 0.2%, the “% weight loss” value ([5]; 1.0%) was 0.4% and 0.1% and 0.01% and 0.2% and the MIC (Aspergillus niger [6]) was 100 µg/mL (≈ 302 µM). The MIC [7] was 100 µg/mL (≈ 302 µM), the MIC (Paecilomyces varioti [8]) was 100 µg/mL (≈ 302 µM) and the MIC (Penicillium funivulosum) was 30 µg/mL (≈ 90.5 µM).
